{
  "source": "patent US9340590B2",
  "about": "(priority 2011, dated 2016)",
  "test_in_all_cases": "cell-based",
  "key": {"[1]": {"target": "hNav1.5 (Homo sapiens, UniProt Q14524)", "sequence (Q14524 whole entry, looked up)": "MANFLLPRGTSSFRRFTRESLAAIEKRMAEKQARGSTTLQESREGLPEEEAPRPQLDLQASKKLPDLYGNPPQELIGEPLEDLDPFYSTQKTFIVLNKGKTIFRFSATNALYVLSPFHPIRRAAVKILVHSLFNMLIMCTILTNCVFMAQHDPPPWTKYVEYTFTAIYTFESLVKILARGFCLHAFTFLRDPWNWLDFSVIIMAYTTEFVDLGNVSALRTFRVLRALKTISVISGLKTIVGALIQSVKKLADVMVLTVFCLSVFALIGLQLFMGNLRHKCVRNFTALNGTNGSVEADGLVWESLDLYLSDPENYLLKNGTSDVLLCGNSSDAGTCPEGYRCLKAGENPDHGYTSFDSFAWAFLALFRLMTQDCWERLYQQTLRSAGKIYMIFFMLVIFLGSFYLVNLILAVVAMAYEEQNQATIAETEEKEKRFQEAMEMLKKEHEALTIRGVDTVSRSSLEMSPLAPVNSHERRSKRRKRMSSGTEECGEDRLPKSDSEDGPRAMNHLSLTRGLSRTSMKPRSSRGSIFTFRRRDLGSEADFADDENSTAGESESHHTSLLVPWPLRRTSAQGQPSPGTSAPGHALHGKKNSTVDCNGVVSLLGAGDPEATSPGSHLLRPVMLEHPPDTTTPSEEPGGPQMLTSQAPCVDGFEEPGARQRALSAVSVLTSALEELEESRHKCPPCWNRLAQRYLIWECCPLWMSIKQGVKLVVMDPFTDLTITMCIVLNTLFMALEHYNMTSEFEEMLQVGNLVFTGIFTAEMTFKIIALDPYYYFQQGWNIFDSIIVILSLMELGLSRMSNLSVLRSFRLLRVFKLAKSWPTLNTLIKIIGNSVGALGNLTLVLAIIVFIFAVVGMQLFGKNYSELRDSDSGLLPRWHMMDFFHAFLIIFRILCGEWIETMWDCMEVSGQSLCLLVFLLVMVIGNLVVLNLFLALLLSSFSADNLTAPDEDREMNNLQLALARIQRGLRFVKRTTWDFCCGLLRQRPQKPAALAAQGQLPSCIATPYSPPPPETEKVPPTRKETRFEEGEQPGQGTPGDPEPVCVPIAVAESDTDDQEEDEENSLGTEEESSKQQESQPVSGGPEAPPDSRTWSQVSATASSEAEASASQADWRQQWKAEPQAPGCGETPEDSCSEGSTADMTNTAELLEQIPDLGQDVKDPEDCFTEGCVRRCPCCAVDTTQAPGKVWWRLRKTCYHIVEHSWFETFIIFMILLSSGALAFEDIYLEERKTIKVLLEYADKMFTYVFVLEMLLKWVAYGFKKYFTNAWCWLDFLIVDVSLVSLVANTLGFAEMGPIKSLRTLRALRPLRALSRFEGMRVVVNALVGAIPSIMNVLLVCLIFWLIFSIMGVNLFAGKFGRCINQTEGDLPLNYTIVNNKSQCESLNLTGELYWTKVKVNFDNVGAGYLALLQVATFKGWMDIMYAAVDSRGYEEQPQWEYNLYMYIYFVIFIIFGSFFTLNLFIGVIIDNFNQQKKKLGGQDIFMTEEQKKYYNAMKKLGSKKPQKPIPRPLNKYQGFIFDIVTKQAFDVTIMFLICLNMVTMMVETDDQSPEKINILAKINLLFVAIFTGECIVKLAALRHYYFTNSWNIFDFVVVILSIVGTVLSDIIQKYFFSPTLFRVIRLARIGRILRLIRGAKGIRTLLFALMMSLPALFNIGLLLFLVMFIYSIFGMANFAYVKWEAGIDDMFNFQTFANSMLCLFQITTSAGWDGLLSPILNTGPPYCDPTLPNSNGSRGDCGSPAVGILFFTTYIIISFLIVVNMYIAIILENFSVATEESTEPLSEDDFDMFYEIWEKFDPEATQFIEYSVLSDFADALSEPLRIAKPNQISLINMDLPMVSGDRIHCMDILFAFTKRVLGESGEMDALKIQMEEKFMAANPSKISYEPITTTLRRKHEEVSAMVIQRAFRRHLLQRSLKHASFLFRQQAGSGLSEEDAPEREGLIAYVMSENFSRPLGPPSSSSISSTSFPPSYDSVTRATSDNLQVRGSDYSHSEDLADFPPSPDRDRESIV", "conditions": "IonWorks Quattro, read-out: IWQ Use Nav1.5"}, "[2]": {"target": "hNav1.7 (Homo sapiens, UniProt Q15858)", "sequence (Q15858 whole entry, looked up)": "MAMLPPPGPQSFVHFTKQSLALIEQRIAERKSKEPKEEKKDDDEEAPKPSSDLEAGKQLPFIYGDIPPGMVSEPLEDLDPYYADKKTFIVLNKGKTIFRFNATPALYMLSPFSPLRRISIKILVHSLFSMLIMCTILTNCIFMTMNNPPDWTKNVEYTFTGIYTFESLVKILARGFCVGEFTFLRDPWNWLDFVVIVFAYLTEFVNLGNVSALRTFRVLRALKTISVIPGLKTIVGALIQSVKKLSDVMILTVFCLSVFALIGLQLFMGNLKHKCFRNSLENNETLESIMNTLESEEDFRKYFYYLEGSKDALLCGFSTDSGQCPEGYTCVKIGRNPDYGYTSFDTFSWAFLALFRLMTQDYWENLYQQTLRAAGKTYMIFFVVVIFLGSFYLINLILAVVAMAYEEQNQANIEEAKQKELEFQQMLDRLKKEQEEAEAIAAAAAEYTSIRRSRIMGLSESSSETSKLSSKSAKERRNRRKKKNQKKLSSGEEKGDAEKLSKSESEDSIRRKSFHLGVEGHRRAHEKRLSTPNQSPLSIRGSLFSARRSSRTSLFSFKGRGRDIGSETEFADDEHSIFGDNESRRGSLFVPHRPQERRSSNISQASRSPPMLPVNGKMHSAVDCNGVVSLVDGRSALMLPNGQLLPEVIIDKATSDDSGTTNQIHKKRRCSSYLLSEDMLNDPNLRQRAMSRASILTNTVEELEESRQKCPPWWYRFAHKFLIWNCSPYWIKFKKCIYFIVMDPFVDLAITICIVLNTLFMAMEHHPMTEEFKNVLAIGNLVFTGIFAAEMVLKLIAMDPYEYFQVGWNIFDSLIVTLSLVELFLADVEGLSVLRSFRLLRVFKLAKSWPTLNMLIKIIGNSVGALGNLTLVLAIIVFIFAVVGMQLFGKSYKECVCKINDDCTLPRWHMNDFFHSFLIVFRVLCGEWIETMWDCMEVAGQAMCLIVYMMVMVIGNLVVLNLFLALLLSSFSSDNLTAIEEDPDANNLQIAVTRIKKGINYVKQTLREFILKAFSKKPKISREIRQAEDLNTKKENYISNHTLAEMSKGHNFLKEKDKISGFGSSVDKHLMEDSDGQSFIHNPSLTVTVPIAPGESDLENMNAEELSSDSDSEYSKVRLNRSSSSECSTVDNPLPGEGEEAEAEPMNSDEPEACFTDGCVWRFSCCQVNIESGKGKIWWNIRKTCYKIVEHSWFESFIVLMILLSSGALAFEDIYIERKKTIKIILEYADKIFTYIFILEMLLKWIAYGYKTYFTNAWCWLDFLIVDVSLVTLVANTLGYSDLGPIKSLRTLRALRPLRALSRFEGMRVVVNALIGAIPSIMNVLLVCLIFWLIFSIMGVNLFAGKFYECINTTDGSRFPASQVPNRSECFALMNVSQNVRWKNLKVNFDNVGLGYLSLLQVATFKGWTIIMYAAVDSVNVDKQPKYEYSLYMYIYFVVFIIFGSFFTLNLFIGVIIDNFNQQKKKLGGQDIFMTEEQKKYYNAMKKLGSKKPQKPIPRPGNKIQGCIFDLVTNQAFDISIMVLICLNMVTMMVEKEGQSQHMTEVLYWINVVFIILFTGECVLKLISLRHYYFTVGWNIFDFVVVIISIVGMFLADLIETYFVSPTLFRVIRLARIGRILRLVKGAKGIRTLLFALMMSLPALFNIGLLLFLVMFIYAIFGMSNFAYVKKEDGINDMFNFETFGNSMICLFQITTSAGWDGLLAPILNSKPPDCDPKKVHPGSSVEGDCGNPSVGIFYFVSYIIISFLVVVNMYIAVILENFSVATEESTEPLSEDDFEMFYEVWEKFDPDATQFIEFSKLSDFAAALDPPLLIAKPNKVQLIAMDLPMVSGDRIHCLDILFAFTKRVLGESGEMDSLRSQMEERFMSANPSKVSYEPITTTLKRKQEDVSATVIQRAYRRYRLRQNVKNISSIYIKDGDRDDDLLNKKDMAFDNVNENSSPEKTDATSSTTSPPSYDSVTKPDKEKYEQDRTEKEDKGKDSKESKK", "assay_type": "cell-based"}, "[3]": {"target": "hNav1.3 (Homo sapiens, UniProt Q9NY46)", "conditions": "IonWorks Quattro, read-out: IWQ Use Nav1.3"}, "[4]": {"conditions": "IonWorks Quattro, use-dependent block, hNav1.7, read-out: IWQ Use Nav1.7"}, "[5]": {"conditions": "clamped to −110 mV, depolarized to −10 mV, 5 min after compound, n=2"}},
  "note": "Where two headings read alike, the source gives them in different places. Positions of bridges follow the written chain, without caps; N, C: chain ends. Non-standard residues stand in square brackets, D forms with d. Residues, ends and D or L forms follow the SMILES beside them. Lys(Me2) = CN(C)CCCC[C@H](N)C(=O)O",
  "data": [
    {"smiles": "CC[C@H](C)[C@@H]1NC(=O)[C@@H]2CSSC[C@@H]3NC(=O)[C@H](C(C)C)NC(=O)[C@H](CC(C)C)NC(=O)[C@H](CC(N)=O)NC(=O)[C@@H]4CCCN4C(=O)[C@H](CCCNC(=N)N)NC(=O)[C@H](CSSC[C@H](NC(=O)[C@@H](N)CC(=O)O)C(=O)N[C@@H](CC(C)C)C(=O)NCC(=O)N[C@@H](Cc4ccccc4)C(=O)N[C@@H](CCSC)C(=O)N[C@@H](CCCNC(=N)N)C(=O)N[C@@H](C)C(=O)N2)NC(=O)[C@H](CSSC[C@@H](C(=O)N[C@@H](CCCCN)C(=O)N[C@@H](Cc2ccc(O)cc2)C(=O)N[C@H](C(=O)N[C@@H](Cc2ccccc2)C(N)=O)C(C)C)NC(=O)[C@H](Cc2c[nH]c4ccccc24)NC(=O)[C@H](CCCCN)NC(=O)[C@H](Cc2cnc[nH]2)NC(=O)[C@H]([C@@H](C)O)NC(=O)[C@H](CCCNC(=N)N)NC(=O)[C@H](CO)NC3=O)NC(=O)[C@H](CCCCN)NC(=O)[C@H](CC(=O)O)NC(=O)[C@H](CC(N)=O)NC(=O)[C@H](CC(=O)O)NC(=O)[C@@H]2CCCN2C1=O", "note": "[[Ala8]GpTx-1(1-34)] (H-DCLGFMRACIPDNDKCCRPNLVCSRTHKWCKYVF-NH2; disulfide 2-17, 9-23, 16-30)", "values": [
      {"measurement": "IC50", "setting": "[1]; use-dependent block, hNav1.5", "result": 16.8, "unit": "µM"},
      {"measurement": "IC50", "setting": "[2]; [4]", "result": 0.49, "unit": "µM"},
      {"measurement": "IC50", "setting": "[3]; use-dependent block, hNav1.3", "result": 0.41, "unit": "µM"}
    ]},
    {"smiles": "CC[C@H](C)[C@@H]1NC(=O)[C@@H]2CSSC[C@@H]3NC(=O)[C@H](C(C)C)NC(=O)[C@H](CC(C)C)NC(=O)[C@H](CC(N)=O)NC(=O)[C@@H]4CCCN4C(=O)[C@H](CCCNC(=N)N)NC(=O)[C@H](CSSC[C@H](NC(=O)[C@@H](N)CC(=O)O)C(=O)N[C@@H](CC(C)C)C(=O)NCC(=O)N[C@@H](Cc4c[nH]cn4)C(=O)N[C@@H](CCSC)C(=O)N[C@@H](CCCNC(=N)N)C(=O)N[C@@H](CCCCN)C(=O)N2)NC(=O)[C@H](CSSC[C@@H](C(=O)N[C@@H](CCCCN)C(=O)N[C@@H](Cc2ccc(O)cc2)C(=O)N[C@H](C(=O)N[C@@H](Cc2ccccc2)C(N)=O)C(C)C)NC(=O)[C@H](Cc2c[nH]c4ccccc24)NC(=O)[C@H](CCCCN)NC(=O)[C@H](Cc2c[nH]cn2)NC(=O)[C@H]([C@@H](C)O)NC(=O)[C@H](CCCNC(=N)N)NC(=O)[C@H](CO)NC3=O)NC(=O)[C@H](CCCCN)NC(=O)[C@H](CC(=O)O)NC(=O)[C@H](CC(N)=O)NC(=O)[C@H](CC(=O)O)NC(=O)[C@@H]2CCCN2C1=O", "note": "[SEQ ID NO: 266] (H-DCLGHMRKCIPDNDKCCRPNLVCSRTHKWCKYVF-NH2; disulfide 2-17, 9-23, 16-30)", "values": [
      {"measurement": "IC50", "setting": "[1]; [5]", "result": 6.62, "unit": "µM"},
      {"measurement": "IC50", "setting": "[2]; IonWorks Quattro, clamped to −110 mV, depolarized to −10 mV, 5 min after compound, n=2, read-out: IWQ Use Nav1.7", "result": 4.74, "unit": "µM"},
      {"measurement": "IC50", "setting": "[3]; [5]", "result": 8.37, "unit": "µM"}
    ]},
    {"smiles": "CC[C@H](C)[C@@H]1NC(=O)[C@@H]2CSSC[C@@H]3NC(=O)[C@H](C(C)C)NC(=O)[C@H](CC(C)C)NC(=O)[C@H](CC(N)=O)NC(=O)[C@@H]4CCCN4C(=O)[C@H](CCCNC(=N)N)NC(=O)[C@H](CSSC[C@H](NC(=O)[C@@H](N)CC(=O)O)C(=O)N[C@@H](CC(C)C)C(=O)NCC(=O)N[C@@H](Cc4ccccc4)C(=O)N[C@@H](CCSC)C(=O)N[C@@H](CCCNC(=N)N)C(=O)N[C@@H](CCCCN)C(=O)N2)NC(=O)[C@H](CSSC[C@@H](C(=O)N[C@@H](CCCCN)C(=O)N[C@@H](Cc2ccc(O)cc2)C(=O)N[C@H](C(=O)N[C@@H](Cc2ccccc2)C(N)=O)C(C)C)NC(=O)[C@H](Cc2c[nH]c4ccccc24)NC(=O)[C@H](CCCCN)NC(=O)[C@H](Cc2c[nH]cn2)NC(=O)[C@H]([C@@H](C)O)NC(=O)[C@H](CCCCN(C)C)NC(=O)[C@H](CO)NC3=O)NC(=O)[C@H](CCCCN)NC(=O)[C@H](CC(=O)O)NC(=O)[C@H](CC(N)=O)NC(=O)[C@H](CC(=O)O)NC(=O)[C@@H]2CCCN2C1=O", "note": "[compound 335] (H-DCLGFMRKCIPDNDKCCRPNLVCS[Lys(Me2)]THKWCKYVF-NH2; disulfide 2-17, 9-23, 16-30)", "values": [
      {"measurement": "IC50", "setting": "[1]; Use", "result": 7.93, "unit": "µM"},
      {"measurement": "IC50", "setting": "[2]; IonWorks Quattro, Use, read-out: IWQ Use Nav1.7", "result": 0.31, "unit": "µM"},
      {"measurement": "IC50", "setting": "[3]; Use", "result": 0.11, "unit": "µM"}
    ]},
    {"smiles": "CC[C@H](C)[C@@H]1NC(=O)[C@@H]2CSSC[C@@H]3NC(=O)[C@H](C(C)C)NC(=O)[C@H](CC(C)C)NC(=O)[C@H](CC(N)=O)NC(=O)[C@@H]4CCCN4C(=O)[C@H](CCCNC(=N)N)NC(=O)[C@H](CSSC[C@H](NC(=O)[C@@H](N)CC(=O)O)C(=O)N[C@@H](CC(C)C)C(=O)NCC(=O)N[C@@H](Cc4ccccc4)C(=O)N[C@@H](CCSC)C(=O)N[C@@H](CCCNC(=N)N)C(=O)N[C@@H](CCCCN)C(=O)N2)NC(=O)[C@H](CSSC[C@@H](C(=O)N[C@@H](CCCCN)C(=O)N[C@@H](Cc2ccc(O)cc2)C(=O)N[C@H](C(=O)N[C@@H](Cc2ccccc2)C(N)=O)C(C)C)NC(=O)[C@H](Cc2c[nH]c4ccccc24)NC(=O)[C@H](CCCCN)NC(=O)[C@H](Cc2cnc[nH]2)NC(=O)[C@H]([C@@H](C)O)NC(=O)[C@H](CCCNC(=N)N)NC(=O)[C@H](CO)NC3=O)NC(=O)[C@H](CCCCN)NC(=O)[C@H](CC(=O)O)NC(=O)[C@H](CC(N)=O)NC(=O)[C@H](CCC(=O)O)NC(=O)[C@@H]2CCCN2C1=O", "note": "[compound 26] (H-DCLGFMRKCIPENDKCCRPNLVCSRTHKWCKYVF-NH2; disulfide 2-17, 9-23, 16-30)", "values": [
      {"measurement": "IC50", "setting": "[1]; Use", "result": 6.45, "unit": "µM"},
      {"measurement": "IC50", "setting": "[2]", "result": 0.26, "unit": "µM"},
      {"measurement": "IC50", "setting": "[3]; Use", "result": 0.19, "unit": "µM"}
    ]},
    {"smiles": "CC[C@H](C)[C@@H]1NC(=O)[C@@H]2CSSC[C@@H]3NC(=O)[C@H](C(C)C)NC(=O)[C@H](CC(C)C)NC(=O)[C@H](CC(N)=O)NC(=O)[C@@H]4CCCN4C(=O)[C@H](CCCNC(=N)N)NC(=O)[C@H](CSSC[C@H](NC(=O)[C@@H](N)CC(=O)O)C(=O)N[C@@H](CC(C)C)C(=O)NCC(=O)N[C@@H](CCC(C)C)C(=O)N[C@@H](CC(C)C)C(=O)N[C@@H](CCCNC(=N)N)C(=O)N[C@@H](CCCCN)C(=O)N2)NC(=O)[C@H](CSSC[C@@H](C(=O)N[C@@H](CCCCN)C(=O)N[C@@H](Cc2ccc(O)cc2)C(=O)N[C@H](C(=O)N[C@@H](Cc2ccccc2)C(N)=O)C(C)C)NC(=O)[C@H](Cc2c[nH]c4ccccc24)NC(=O)[C@H](CCCCN)NC(=O)[C@H](Cc2c[nH]cn2)NC(=O)[C@H]([C@@H](C)O)NC(=O)[C@H](CCCNC(=N)N)NC(=O)[C@H](CO)NC3=O)NC(=O)[C@H](CCCCN)NC(=O)[C@H](CC(=O)O)NC(=O)[C@H](CC(N)=O)NC(=O)[C@H](CC(=O)O)NC(=O)[C@@H]2CCCN2C1=O", "note": "[compound 660]", "values": [
      {"measurement": "IC50", "setting": "[1]; use-dependent protocol, hNav1.5", "result": "> 5", "unit": "µM"},
      {"measurement": "IC50", "setting": "[2]; IonWorks Quattro, use-dependent protocol, hNav1.7, read-out: IWQ Use Nav1.7", "result": 0.031, "unit": "µM"},
      {"measurement": "IC50", "setting": "[3]; use-dependent protocol, hNav1.3", "result": 0.059, "unit": "µM"}
    ]},
    {"smiles": "CC[C@H](C)[C@@H]1NC(=O)[C@@H]2CSSC[C@@H]3NC(=O)[C@H](C(C)C)NC(=O)[C@H](CC(C)C)NC(=O)[C@H](CC(N)=O)NC(=O)[C@@H]4CCCN4C(=O)[C@H](CCCNC(=N)N)NC(=O)[C@H](CSSC[C@H](NC(=O)[C@@H](N)CC(=O)O)C(=O)N[C@@H](CC(C)C)C(=O)NCC(=O)N[C@@H](C)C(=O)N[C@@H](Cc4ccccc4)C(=O)N[C@@H](CCCNC(=N)N)C(=O)N[C@@H](CCCCN)C(=O)N2)NC(=O)[C@H](CSSC[C@@H](C(=O)N[C@@H](CCCCN)C(=O)N[C@@H](Cc2ccc(O)cc2)C(=O)N[C@H](C(=O)N[C@@H](Cc2ccccc2)C(=O)O)C(C)C)NC(=O)[C@H](Cc2c[nH]c4ccccc24)NC(=O)[C@H](CCCNC(=N)N)NC(=O)[C@H](Cc2c[nH]cn2)NC(=O)[C@H]([C@@H](C)O)NC(=O)[C@H](CCCNC(=N)N)NC(=O)[C@H](CO)NC3=O)NC(=O)[C@H](CCCCN)NC(=O)[C@H](CC(=O)O)NC(=O)[C@H](CCCCN)NC(=O)[C@H](CC(=O)O)NC(=O)[C@@H]2CCCN2C1=O", "note": "[compound 843]", "values": [
      {"measurement": "IC50", "setting": "[1]; use-dependent block, hNav1.5", "result": 2.8, "unit": "µM"},
      {"measurement": "IC50", "setting": "[2]; [4]", "result": 3.6, "unit": "µM"},
      {"measurement": "IC50", "setting": "[3]; use-dependent block, hNav1.3", "result": 0.3, "unit": "µM"}
    ]},
    {"smiles": "CC[C@H](C)[C@@H]1NC(=O)[C@@H]2CSSC[C@@H]3NC(=O)[C@H](C(C)C)NC(=O)[C@H](CC(C)C)NC(=O)[C@H](CC(N)=O)NC(=O)[C@@H]4CCCN4C(=O)[C@H](CCCNC(=N)N)NC(=O)[C@H](CSSC[C@H](NC(=O)[C@@H](N)CC(=O)O)C(=O)N[C@@H](CC(C)C)C(=O)NCC(=O)N[C@@H](Cc4ccccc4)C(=O)N[C@@H](CCSC)C(=O)N[C@@H](CCCNC(=N)N)C(=O)N[C@@H](CCCCN)C(=O)N2)NC(=O)[C@H](CSSC[C@@H](C(=O)N[C@@H](CCCCN)C(=O)N[C@@H](Cc2ccc(O)cc2)C(=O)N[C@H](C(=O)N[C@@H](C)C(N)=O)C(C)C)NC(=O)[C@H](Cc2c[nH]c4ccccc24)NC(=O)[C@H](CCCCN)NC(=O)[C@H](Cc2cnc[nH]2)NC(=O)[C@H]([C@@H](C)O)NC(=O)[C@H](CCCNC(=N)N)NC(=O)[C@H](CO)NC3=O)NC(=O)[C@H](CCCCN)NC(=O)[C@H](CC(=O)O)NC(=O)[C@H](CC(N)=O)NC(=O)[C@H](CC(=O)O)NC(=O)[C@@H]2CCCN2C1=O", "note": "[compound 101] (H-DCLGFMRKCIPDNDKCCRPNLVCSRTHKWCKYVA-NH2; disulfide 2-17, 9-23, 16-30)", "values": [
      {"measurement": "IC50", "setting": "[1]; use-dependent, […]", "result": 9.33, "unit": "µM"},
      {"measurement": "IC50", "setting": "[2]", "result": 7.19, "unit": "µM"},
      {"measurement": "IC50", "setting": "[3]; use-dependent, […]", "result": 4.76, "unit": "µM"}
    ]}
  ]
}
